According to patent US20130072404A1, “APPARATUS AND PROCESSES FOR GENERATING VARIABLE CONCENTRATION OF SOLUTES IN MICRODROPLETS” (UNIVERSITE DE STRASBOURG, priority 2009, published 2013):

What was measured:
Format in all cases: biochemical
[1] = target: T1, protein tyrosine phosphatase 1B (PTP1B) (Homo sapiens, UniProt P18031); test: High-resolution dose-response screening of PTP1B with a chemical library in droplets, FDP substrate
T1 construct: purchased EMD Biosciences, Inc
T1 sequence (P18031 1-435): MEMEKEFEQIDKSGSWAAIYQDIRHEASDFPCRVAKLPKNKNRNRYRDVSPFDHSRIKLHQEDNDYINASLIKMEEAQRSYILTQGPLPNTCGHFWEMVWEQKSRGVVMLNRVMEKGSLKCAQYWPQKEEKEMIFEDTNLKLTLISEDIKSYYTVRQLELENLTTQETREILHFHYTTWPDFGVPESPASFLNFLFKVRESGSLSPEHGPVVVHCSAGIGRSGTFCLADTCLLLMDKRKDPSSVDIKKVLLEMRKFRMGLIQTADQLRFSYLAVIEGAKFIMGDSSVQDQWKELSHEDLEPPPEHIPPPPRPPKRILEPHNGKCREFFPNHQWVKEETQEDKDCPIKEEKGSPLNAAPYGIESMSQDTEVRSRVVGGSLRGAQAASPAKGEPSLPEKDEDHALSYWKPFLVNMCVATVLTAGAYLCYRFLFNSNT
Experimental: High-resolution dose-response screening of PTP1B inhibition was performed in a similar manner to the screening of β-galactosidase inhibition (see above), but with the following changes: 50 mM HEPES pH 7.2 was used in place of PBS; the enzyme solution was 20 mg/l PTP1B in 50 mM HEPES pH 7.2 containing 4 mM DTT, 4 mM EDTA, and 4 g/l BSA; and the substrate solution was 68 μM FDP in 50 mM HEPES pH 7.2. In place of the 96-well plate were two 384-well plates containing 704 compounds comprising a subset of the Prestwick Chemical Library® (FIG. 21). These plates were prepared by diluting 1 μl aliquots of the compounds in pure DMSO to 10 μl of 240 μM concentration in 50 mM HEPES pH 7.2 by serial dilution. The compounds occupied columns 1 to 22 of each plate, while the wells in column 23 contained 10 μl of 240 μM sodium suramin (in the same buffer) and the wells in column 24 contained 10 μl of buffer alone.
Injections were performed as described above. […] In this case the dispersion coefficients were assumed to be identical and the compound concentration in each droplet was calculated by assuming a linear correlation between NIR fluorescence and compound concentration.

PTP1B = target: T2, PTP1B (Homo sapiens, UniProt P18031); test: Microplate dose-response assay, PTP1B
T2 construct: purchased EMD Biosciences, Inc
T2 sequence (P18031 1-435): T1 sequence (P18031 1-435)
Experimental: For PTP1B, the same approach was used with the following alterations: the inhibitor was diluted in 50 mM HEPES pH 7.2; the solution of enzyme was 10 mg/l PTP1B (EMD Biosciences, Inc., California, USA) in 50 mM HEPES pH 7.2 containing 2 mM DTT, 2 mM EDTA, and 2 g/l BSA; and the solution of substrate was 68 μM FDP in 50 mM HEPES pH 7.2.

β-galactosidase [2] = target: T3, β-galactosidase (Escherichia coli, UniProt P00722); test: Standard microplate assay (Example 1 comparison values); parameters: purchased Sigma-Aldrich Co; details: read-out: KM of RBG measured in a standard microplate assay
T3 sequence (P00722 2-1024 limits assumed): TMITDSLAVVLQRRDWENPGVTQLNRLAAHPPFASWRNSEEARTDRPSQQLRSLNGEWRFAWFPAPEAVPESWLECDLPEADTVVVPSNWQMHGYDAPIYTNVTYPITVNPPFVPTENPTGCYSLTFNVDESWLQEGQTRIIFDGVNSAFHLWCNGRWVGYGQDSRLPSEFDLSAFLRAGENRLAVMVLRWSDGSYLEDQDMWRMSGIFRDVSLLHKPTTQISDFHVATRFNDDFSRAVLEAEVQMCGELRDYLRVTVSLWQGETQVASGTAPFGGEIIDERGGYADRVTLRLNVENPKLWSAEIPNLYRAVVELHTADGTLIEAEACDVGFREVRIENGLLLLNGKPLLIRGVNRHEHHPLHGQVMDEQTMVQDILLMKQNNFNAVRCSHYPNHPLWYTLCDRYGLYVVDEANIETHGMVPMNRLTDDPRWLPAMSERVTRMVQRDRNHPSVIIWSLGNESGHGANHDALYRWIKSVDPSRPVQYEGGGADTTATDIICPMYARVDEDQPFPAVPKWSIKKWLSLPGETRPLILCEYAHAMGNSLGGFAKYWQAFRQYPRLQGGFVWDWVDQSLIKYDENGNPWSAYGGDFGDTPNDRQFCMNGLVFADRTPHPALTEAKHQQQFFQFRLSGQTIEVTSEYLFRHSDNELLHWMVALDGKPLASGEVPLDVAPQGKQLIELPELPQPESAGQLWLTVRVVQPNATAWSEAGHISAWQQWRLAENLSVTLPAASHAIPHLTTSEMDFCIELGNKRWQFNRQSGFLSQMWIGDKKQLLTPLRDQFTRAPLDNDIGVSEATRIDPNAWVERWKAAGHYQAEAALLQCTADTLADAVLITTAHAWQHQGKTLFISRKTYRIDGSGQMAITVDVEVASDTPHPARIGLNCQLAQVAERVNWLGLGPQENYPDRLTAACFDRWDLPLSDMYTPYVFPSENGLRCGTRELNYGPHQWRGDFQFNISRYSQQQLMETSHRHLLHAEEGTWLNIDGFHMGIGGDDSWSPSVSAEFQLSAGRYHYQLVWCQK

β-galactosidase [3] = target: T3, β-galactosidase; test: Droplet microfluidic KM measurement, on-chip dilution system (Example 1e); parameters: purchased Sigma-Aldrich Co; details: 75 s droplet incubation, Michaelis-Menten fit, read-out: KM of RBG in the enzyme/substrate system
Experimental: In the examples, the model systems comprised an enzyme, a substrate, and an inhibitor for IC50 measurements and an enzyme and substrate alone for KM measurements. In all cases the enzyme was β-galactosidase (Sigma-Aldrich Co.), the substrate was resorufin β-D-galactopyranoside (RBG; Invitrogen Corporation), and the inhibitor was phenylethyl β-D-thiogalactopyranoside (PETG; Invitrogen Corporation).
An aqueous phase of 520 μM RBG (the substrate), 100 μM sodium fluorescein, and 5% (v/v) DMSO in PBS were injected into the ‘compound’ input of the microfluidic device (FIG. 4) at a flow rate of 111 μl/hr. A second aqueous phase, 5% (v/v) DMSO in PBS, was injected into the ‘diluent’ input at a flow rate of 389 μl/hr. […]
A series of microdroplets were created containing RBG (and sodium fluorescein) at different concentrations: from zero to 260 μM (50 μM sodium fluorescein) and then from 260 μM to zero. […] The amounts of fluorescent resorufin (liberated by β-galactosidase activity) and sodium fluorescein were measured for each droplet by monitoring fluorescence intensity in the 590-625 and 500-520 nm channels, respectively.
A Michaelis-Menten curve was fitted to the points using the DRC package in R (FIG. 8). […] This value compares favorably to the value measured in a standard microplate assay: 115.6 μM (95% confidence intervals: 102.7-128.6 μM).

| effect on PTP1B in high-resolution dose-response curves ([1]; droplets) | confirmation of activity in microplate (PTP1B) | inhibition ([1]; 50 μM droplets) [%] | IC50 ([1]; droplets, 4-parameter Hill fit) [µM] | SMILES | Km (β-galactosidase [2]) [µM] | Km (β-galactosidase [3]) [µM] |
| --- | --- | --- | --- | --- | --- | --- |
| strong inhibition of PTP1B | confirmed in microplate | – | 33 | NC(=O)c1cc[n+](CC2=C(C(=O)[O-])N3C(=O)[C@@H](NC(=O)[C@@H](c4ccccc4)S(=O)(=O)[O-])[C@H]3SC2)cc1.[Na+] [sodium cefsulodine] | – | – |
| weak activator | confirmed in microplate | – | – | O=C(O)c1cc(-c2ccc(F)cc2F)ccc1O [diflunisal] | – | – |

More lines, now with the values behind:

| SMILES | effect on PTP1B in high-resolution dose-response curves ([1]; droplets) | confirmation of activity in microplate (PTP1B) | inhibition ([1]; 50 μM droplets) [%] | IC50 ([1]; droplets, 4-parameter Hill fit) [µM] | Km (β-galactosidase [2]) [µM] | Km (β-galactosidase [3]) [µM] |
| --- | --- | --- | --- | --- | --- | --- |
| Cn1cc[nH]c1=S [methimazole] | weak inhibitor | not confirmed in microplate | – | – | – | – |
| Cc1ccc(C(=O)Nc2ccc(S(=O)(=O)[O-])c3cc(S(=O)(=O)[O-])cc(S(=O)(=O)[O-])c23)cc1NC(=O)c1cccc(NC(=O)Nc2cccc(C(=O)Nc3cc(C(=O)Nc4ccc(S(=O)(=O)[O-])c5cc(S(=O)(=O)[O-])cc(S(=O)(=O)[O-])c45)ccc3C)c2)c1.[Na+].[Na+].[Na+].[Na+].[Na+].[Na+] [sodium suramin] | activate PTP1B at low concentrations (<10 μM) and inhibit it at higher concentrations | confirmed in microplate | 89.9 | – | – | – |
| O=c1ccc2nc3ccc(O[C@@H]4O[C@H](CO)[C@H](O)[C@H](O)[C@H]4O)cc3oc-2c1 [RBG, resorufin β-D-galactopyranoside] | – | – | – | – | 116 | 446 |
